# System: B16 melanoma cells
# Assay: Artificial metastasis model of B16 mice melanoma (Example 6)
# Format: in vivo, C57BL/6 mouse
# Experimental: 3) An metastasis model of B16 mouse melanoma is constructed by direct injection of B16 cells into tail vein in C57BL/6 mouse, and the ability of a drug for inhibiting tumor metastasis is determined by counting the number of the metastatic tumors on lung. Such a model mimics the metastatic process of cancer cells from the circulatory system to the target organ, which is more similar with the metastatic way of tumor cells in the bodies of patients with advanced cancer.
# The ability of (S)2-(4′-methyl-3′-nitrobenzoylamino)-3-phenylpropionic acid for inhibiting tumor metastasis in vivo was tested by artificial metastasis model of B16 mice melanoma.
# 1) Mice grouping: C57BL/6 of SPF grade, 5 weeks old, 18˜22 g, 8 mice for each group, half male and half female;
# 2) The mother liquid of (S)2-(4′-methyl-3′-nitrobenzoylamino)-3-phenylpropionic acid for the dosage form administrated by intravenous injection was diluted to 0.8 mg/mL, 0.2 mg/mL, 0.05 mg/mL by adding sterilized water. […]
# 3) B16 cells in logarithmic growth phase were digested with 0.05% typsine for 1 min, and after centrifugation at 1000 rpm for 5 min, the supernatant was discarded and the cells were resuspended and counted. […]
# 5) After the completion of the experiment, the mice were sacrificed and the lungs were taken, the number and size of melanomas on the lungs was counted, and the weight of the lungs were weighed;
compound,measurement,setting,value
Cc1ccc(C(=O)N[C@@H](Cc2ccccc2)C(=O)O)cc1[N+](=O)[O-] [(S)2-(4′-methyl-3′-nitrobenzoylamino)-3-phenylpropionic acid],tumor numbers on the lungs and lung weights compared with the negative control,"8, 2, 0.5 mg/kg tail vein, twice a day, 21 days, P<0.01",very significant difference
same,inhibition of metastasis of B16 mouse melanoma cell in C57BL/6 mouse,tail vein administration of 0.5 mg/kg,significantly inhibit
